Results on one compound are retold here after patent US20210116454A1, “METHODS FOR TREATING A HEMATOLOGICAL CANCER AND THE USE OF COMPANION BIOMARKERS FOR 2-(2,6-DIOXOPIPERIDIN-3-YL)-4-((2-FLUORO-4-((3-MORPHOLINOAZETIDIN-1-YL)METHYL)BENZYL)AMINO)ISOINDOLINE-1,3-DIONE” (CELGENE CORPORATION, priority 2019, published 2021).

Like-named read-outs stand apart in the source and are kept apart here.

Test [1] relates to KARPAS-422-Cas9 and SU-DHL-4-Cas9 knock-out cells. Nature of the test: Flow cytometry-based cellular competition assay in substrate knock-out cells. Particulars: 0.1, 1, 10 nM. The test is classed as cell-based. The source says: Compound 1 induces autonomous cell killing activity in DLBCL cells in a cereblon-dependent manner. To investigate the consequence of loss of a single cereblon substrate, CRISPR/Cas9-mediated knockout of a cereblon substrate coupled with a flow cytometry-based cellular competition assay was utilized to assess relative cell fitness upon gene knock-out in six DLBCL cell lines: KARPAS-422, U-2932, RIVA, SU-DHL-16, HT, and SU-DHL-4 (FIG. 7, Panel A). To perform the flow cytometry-based competition assay, stable Cas9-expressing DLBCL cells were transduced with a control non-targeting sgRNA construct containing a GFP reporter (sgNT-1-GFP), or with a sgRNA construct targeting a gene of interest containing an RFP reporter (sgRNA-RFP). For targeted knock-out of each gene, two sgRNA sequences were used to knock-out Ikaros (sgIKZF1-1, sgIKZF1-2), Aiolos (sgIKZF3-1, sgIKZF3-2), and ZFP91 (sgZFP91-1, sgZFP91-3). For controls, two non-targeting sgRNAs (sgNT-1, sgNT-2), a sgRNA targeting a non-coding region of the genome (sgNC-1), and a sgRNA targeting an established essential gene ETF1 (sgETF1-1) were included. Following transduction with sgRNAs, cells were washed and mixed at a 1:1 ratio and the percentage of GFP^+ and RFP^+ cells was measured every three days for eighteen days (FIG. 7, panel B). […]
A general note: Flow cytometry measures light scatter and fluorescence of single cells or particles in a stream.

A further test deals with T1, Aiolos (Homo sapiens, UniProt Q96SW2+Q9UKT9).
T1 construct: expressed in transfected cells; host or cells: DF15 cells
T1 sequence (Q9UKT9 whole entry): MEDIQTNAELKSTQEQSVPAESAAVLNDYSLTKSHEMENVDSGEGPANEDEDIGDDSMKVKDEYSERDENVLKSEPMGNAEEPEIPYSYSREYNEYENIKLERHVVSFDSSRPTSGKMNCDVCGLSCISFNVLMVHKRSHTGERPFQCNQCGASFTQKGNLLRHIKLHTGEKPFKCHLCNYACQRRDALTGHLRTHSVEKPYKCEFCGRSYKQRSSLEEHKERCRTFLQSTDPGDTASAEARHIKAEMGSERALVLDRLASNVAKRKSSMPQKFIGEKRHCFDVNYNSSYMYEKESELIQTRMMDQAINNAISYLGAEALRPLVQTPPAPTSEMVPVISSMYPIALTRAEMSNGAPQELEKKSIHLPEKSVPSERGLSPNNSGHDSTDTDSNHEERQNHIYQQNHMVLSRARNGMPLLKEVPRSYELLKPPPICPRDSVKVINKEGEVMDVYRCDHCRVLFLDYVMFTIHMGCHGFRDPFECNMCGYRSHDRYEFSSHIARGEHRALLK
T1 sequence (Q96SW2 whole entry): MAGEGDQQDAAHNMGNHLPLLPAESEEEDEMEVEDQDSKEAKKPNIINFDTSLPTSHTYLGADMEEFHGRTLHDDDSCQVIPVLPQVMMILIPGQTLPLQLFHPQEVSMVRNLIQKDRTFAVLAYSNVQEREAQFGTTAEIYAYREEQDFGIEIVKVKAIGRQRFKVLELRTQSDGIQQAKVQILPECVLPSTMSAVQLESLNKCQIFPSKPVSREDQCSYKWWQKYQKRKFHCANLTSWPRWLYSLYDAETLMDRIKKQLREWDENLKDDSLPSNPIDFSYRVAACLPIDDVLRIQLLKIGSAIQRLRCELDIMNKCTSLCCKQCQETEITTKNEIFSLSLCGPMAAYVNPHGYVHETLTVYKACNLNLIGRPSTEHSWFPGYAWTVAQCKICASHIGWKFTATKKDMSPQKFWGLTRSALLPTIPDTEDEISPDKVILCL
T1 sequence (Q16531 whole entry partner): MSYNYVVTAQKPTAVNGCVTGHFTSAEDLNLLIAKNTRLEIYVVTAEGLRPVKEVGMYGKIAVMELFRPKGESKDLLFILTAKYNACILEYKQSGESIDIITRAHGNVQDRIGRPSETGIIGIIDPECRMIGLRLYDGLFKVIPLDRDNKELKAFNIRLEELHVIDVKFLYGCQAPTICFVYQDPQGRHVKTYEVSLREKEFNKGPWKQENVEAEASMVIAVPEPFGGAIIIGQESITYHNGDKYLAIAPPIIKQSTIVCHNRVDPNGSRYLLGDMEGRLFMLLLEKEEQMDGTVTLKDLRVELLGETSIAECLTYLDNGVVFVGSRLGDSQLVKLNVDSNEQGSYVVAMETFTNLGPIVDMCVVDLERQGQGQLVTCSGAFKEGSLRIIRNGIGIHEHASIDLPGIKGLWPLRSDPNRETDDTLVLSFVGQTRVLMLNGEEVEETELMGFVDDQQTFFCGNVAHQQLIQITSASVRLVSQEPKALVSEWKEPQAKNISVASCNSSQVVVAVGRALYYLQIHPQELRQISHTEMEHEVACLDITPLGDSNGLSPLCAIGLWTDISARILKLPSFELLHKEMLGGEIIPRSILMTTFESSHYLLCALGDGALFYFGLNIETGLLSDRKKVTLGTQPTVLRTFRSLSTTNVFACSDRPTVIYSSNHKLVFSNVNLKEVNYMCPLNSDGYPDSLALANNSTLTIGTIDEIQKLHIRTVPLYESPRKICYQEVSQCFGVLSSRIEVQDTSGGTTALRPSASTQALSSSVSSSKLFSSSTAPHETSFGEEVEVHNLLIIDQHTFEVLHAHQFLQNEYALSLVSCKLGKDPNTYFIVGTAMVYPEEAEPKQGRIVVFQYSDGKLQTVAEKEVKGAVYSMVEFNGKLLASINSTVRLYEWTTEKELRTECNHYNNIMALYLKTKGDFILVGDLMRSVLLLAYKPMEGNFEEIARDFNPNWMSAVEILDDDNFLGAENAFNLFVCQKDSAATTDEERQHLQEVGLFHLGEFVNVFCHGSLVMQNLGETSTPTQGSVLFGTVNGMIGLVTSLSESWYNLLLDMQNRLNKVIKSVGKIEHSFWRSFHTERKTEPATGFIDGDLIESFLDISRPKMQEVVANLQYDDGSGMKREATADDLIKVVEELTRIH
Nature of the test: Enzyme fragment complementation (EFC) degradation assay, DF15 cells expressing ePL-tagged substrate. Particulars: for Emax: DF15, DF15 ePL-Aiolos, remaining substrate; for DC50: DF15 ePL-Aiolos, read-out: Aiolos degradation EC50. In kind it is cell-based.

Test [2] has as its system endothelial cells, T- and B-lymphocytes, coronary smooth muscle cells, and fibroblasts. The test is described as follows: BioMAP Diversity PLUS Panel, antiproliferative effects. In kind it is cell-based, human. On the procedure:
The BioMAP Diversity PLUS Panel was assessed after treatment with Compound 1. The X-axis lists the quantitative protein-based biomarker readouts measured in each system. The Y-axis represents a log-transformed ratio of the biomarker readouts for the drug-treated sample (n=1) over vehicle controls (n≥6). The grey region around the Y-axis represents the 95% significance envelope generated from historical vehicle controls. Biomarker activities were annotated when 2 or more consecutive concentrations change in the same direction relative to vehicle controls, are outside of the significance envelope, and have at least one concentration with an effect size >20% (log 10 ratio >0.1). Antiproliferative effects are indicated by a thick grey arrow.
The activity of Compound 1 was profiled in a panel of human primary cell-based assays, modeling complex tissue and disease biology of organs (vasculature, immune system, skin, lung) and general tissue biology using the BioMAP System (DiscoveRx, Fremont, Calif.).
The BioMAP System consists of twelve primary human monoculture or co-culture systems in stimulated and non-stimulated control conditions (FIG. 4, panel A). When tested at 0.01, 0.1, 1, and 10 μM, Compound 1 mediated changes in key biomarker activities. […]

As a reminder, the Emax is the maximal effect, on the per cent scale that the assay sets. Take `O=C1CC[C@H](N2C(=O)c3cccc(NCc4ccc(CN5CC(N6CCOCC6)C5)cc4F)c3C2=O)C(=O)N1` [Compound 1, (S)-2-(2,6-dioxopiperidin-3-yl)-4-((2-fluoro-4-((3-morpholinoazetidin-1-yl)methyl)benzyl)amino)isoindoline-1,3-dione]: the “RFP+/GFP+ ratio relative to DMSO-treated control cells” value in test [1] (sgIKZF1 and sgIKZF3 knock-out cells) is reported as “dose-dependent decrease”. Also, in test [1] (sgZFP91 cells), the “dose-dependent decrease in RFP+/GFP+ ratio” value is on record as “not observed”. The Emax on Aiolos (1 hour) is 60%; on Aiolos (2 hours), 16.5%; at Aiolos (6 hours), 6%; at Aiolos (24 hours), 7%. In addition, the DC50 amounted to 0.6 nM on Aiolos (1 hour), 0.5 nM at Aiolos (2 hours), 0.2 nM at Aiolos (6 hours) and 0.2 nM at Aiolos (24 hours). Moreover, in test [2], the “antiproliferative effects in BioMAP systems” value is given as “selectively antiproliferative”.
